Molecules are shown by their SMILES. Where only a bound is given, the exact number is not on record here.

One test addresses T1, hEP4/Gqs5 (Homo sapiens, UniProt P35408).
T1 construct: expressed in transfected cells; host or cells: HEK-293(EBNA)
Put plainly: FLIPR calcium signal, hEP4. The format is cell-based. To be noted: HEK-293(EBNA) cells, read-out: FUNCTIONAL (nm) HEP4. The procedure: (§1) Methods for Flipr™ Studies
(§2) HEK-293(EBNA) cells, stably expressing one type or subtype of recombinant human prostaglandin receptors (prostaglandin receptors expressed: hDP/Gqs5; hEP1; hEP2/Gqs5; hEP3A/Gqi5; hEP4/Gqs5; hFP; hIP; hTP), were cultured in 100 mm culture dishes in high-glucose DMEM medium containing 10% fetal bovine serum, 2 mM 1-glutamine, 250 μg/ml geneticin (G418) and 200 μg/ml hygromycin B as selection markers, and 100 units/ml penicillin G, 100 μg/ml streptomycin and 0.25 μg/ml amphotericin B.
(§3) (b) Calcium Signal Studies on the Flipr™
(§4) Cells were seeded at a density of 5×10^4 cells per well in Biocoat® Poly-D-lysine-coated black-wall, clear-bottom 96-well plates (Becton-Dickinson) and allowed to attach overnight in an incubator at 37° C. Cells were then washed two times with HBSS-HEPES buffer (Hanks Balanced Salt Solution without bicarbonate and phenol red, 20 mM HEPES, pH 7.4) using a Denley Cellwash plate washer (Labsystems). […]
(§5) Cells were excited with an Argon laser at 488 nm, and emission was measured through a 510-570 nm bandwidth emission filter (FLIPR™, Molecular Devices, Sunnyvale, Calif.). […] The peak increase in fluorescence intensity was recorded for each well. […] The peak fluorescence change in each drug-containing well was then expressed relative to the controls. […]

A further test deals with T2, EP4 receptors (Homo sapiens, UniProt P35408).
T2 construct: expressed in transfected cells; host or cells: HEK-293 (membrane fraction)
Kind of test: Radioligand binding, hEP4. The note with it: HEK-293 membranes, competition vs 5 nM [3H]-PGE2. On the procedure:
Cells Stably Expressing EP1, EP2, EP4 and FP Receptors
HEK-293 cells stably expressing the human or feline FP receptor, or EP1, EP2, or EP4 receptors were washed with TME buffer, scraped from the bottom of the flasks, and homogenized for 30 sec using a Brinkman PT 10/35 polytron. TME buffer was added to achieve a final 40 ml volume in the centrifuge tubes (the composition of TME is 100 mM TRIS base, 20 mM MgCl2, […]; 10N HCl is added to achieve a pH of 7.4).
The cell homogenate was centrifuged at 19000 r.p.m. for 20 min at 4° C. using a Beckman Ti-60 rotor. The resultant pellet was resuspended in TME buffer to give a final 1 mg/ml protein concentration, as determined by Biorad assay. Radioligand binding competition assays vs. [^3H-]17 -phenyl PGF2α (5 nM) were performed in a 100 μl volume for 60 min. Binding reactions were started by adding plasma membrane fraction. The reaction was terminated by the addition of 4 ml ice-cold TRIS-HCl buffer and rapid filtration through glass fiber GF/B filters using a Brandel cell harvester. The filters were washed 3 times with ice-cold buffer and oven dried for one hour.
[^3H-] PGE2 (specific activity 180 Ci mmol) was used as the radioligand for EP receptors. [^3H] […] 17-phenyl PGF2α and non-specific binding determined with 10^−5 M of unlabeled PGE2, or 17-phenyl PGF2α, according to receptor subtype studied.

A further test has as its target T3, HEP3D (Homo sapiens, UniProt P43115).
T3 sequence (P43115 1-374 isoform P43115-4): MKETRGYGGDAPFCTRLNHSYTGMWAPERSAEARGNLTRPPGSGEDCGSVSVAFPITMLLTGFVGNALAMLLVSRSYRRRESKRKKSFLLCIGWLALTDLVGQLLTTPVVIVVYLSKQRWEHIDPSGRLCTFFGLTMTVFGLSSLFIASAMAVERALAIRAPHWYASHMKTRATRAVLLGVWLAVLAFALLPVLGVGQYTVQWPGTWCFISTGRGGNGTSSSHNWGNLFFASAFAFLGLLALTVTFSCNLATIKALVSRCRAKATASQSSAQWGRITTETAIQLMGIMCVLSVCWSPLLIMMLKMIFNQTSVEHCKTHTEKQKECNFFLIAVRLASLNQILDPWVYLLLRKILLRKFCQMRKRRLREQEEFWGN
Kind of test: Radioligand binding, hEP3D. To be noted: competition vs 5 nM [3H]-PGE2.

The target of the next test is T4, hTP (Homo sapiens, UniProt P21731).
T4 construct: expressed in transfected cells; host or cells: HEK-293(EBNA)
T4 sequence (P21731 1-343): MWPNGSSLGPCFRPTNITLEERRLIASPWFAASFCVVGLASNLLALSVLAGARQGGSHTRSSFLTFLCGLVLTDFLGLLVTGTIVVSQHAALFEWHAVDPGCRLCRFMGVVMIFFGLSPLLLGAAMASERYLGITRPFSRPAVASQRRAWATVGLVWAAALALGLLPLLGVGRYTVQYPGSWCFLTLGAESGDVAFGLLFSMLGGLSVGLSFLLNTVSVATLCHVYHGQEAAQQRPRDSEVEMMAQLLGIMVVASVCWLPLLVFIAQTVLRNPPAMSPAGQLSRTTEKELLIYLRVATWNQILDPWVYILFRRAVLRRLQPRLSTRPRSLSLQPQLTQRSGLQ
Kind of test: FLIPR calcium signal, hTP. The test is classed as cell-based. To be noted: HEK-293(EBNA) cells, read-out: FUNCTIONAL (nm) HTP. The procedure: as §1, §2, §3, §4, §5

T1 sequence (P35408 whole entry): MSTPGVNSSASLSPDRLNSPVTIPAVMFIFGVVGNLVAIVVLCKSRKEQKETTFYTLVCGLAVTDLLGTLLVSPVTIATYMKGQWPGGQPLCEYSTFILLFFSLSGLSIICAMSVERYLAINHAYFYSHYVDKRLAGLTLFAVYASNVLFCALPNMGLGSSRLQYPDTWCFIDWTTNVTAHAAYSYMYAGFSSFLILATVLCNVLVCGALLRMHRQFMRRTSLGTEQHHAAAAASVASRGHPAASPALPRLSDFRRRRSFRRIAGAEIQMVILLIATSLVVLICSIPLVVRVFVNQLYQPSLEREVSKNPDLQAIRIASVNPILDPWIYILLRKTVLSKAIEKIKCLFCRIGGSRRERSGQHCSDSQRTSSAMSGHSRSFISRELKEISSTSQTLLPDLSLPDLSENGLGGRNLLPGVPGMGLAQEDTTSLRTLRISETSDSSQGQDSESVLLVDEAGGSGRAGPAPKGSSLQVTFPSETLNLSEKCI
T2 sequence (P35408 whole entry): as above

In general, IC50 refers to the midpoint of a concentration-inhibition curve. Low readings indicate higher potency, high ones lower potency. Take `O=C(O)CCC/C=C\C[C@H]1C(=O)C(O)C[C@@H]1/C=C/C(O)CCc1sc2ccccc2c1Cl` (single isomer, unassigned) [Compound 9L]: the EC50 on hEP4/Gqs5 is 78 nM; on hTP, greater than 10000 nM. In addition, the IC50 on EP4 receptors came to 200 nM; on HEP3D, 8700 nM.

In the case of `O=C(O)CCC/C=C\C[C@H]1C(=O)C(O)C[C@@H]1/C=C/C(O)CCc1sc2ccccc2c1Cl` (single isomer, unassigned) [Compound 9H], on hEP4/Gqs5, the EC50 was 53 nM. Also, the IC50 at EP4 receptors is 170 nM; on HEP3D, greater than 10000 nM.

(Values after patent US7652063B2, “10-hydroxy-11-dihydroprostaglandin analogs as selective EP4 agonists” (Allergan, Inc., priority 2004, dated 2010).)
